In a melting point compilation (Tetko et al.; mined from patent text by program, amines drawn as free bases though some values may be those of a salt):

Compound	melting point
CCN(CC)C(=O)Oc1nc(-c2ccccc2)nc2ccccc12	54 °C
CCCCCS(=O)(=O)NC(=O)CCc1cc(OC(C)C)nn1Cc1ccc(C(F)(F)F)cc1Cl	147 to 149 °C
COC(=O)C(NC(=O)OC(C)(C)C)c1ccc(OS(=O)(=O)C(F)(F)F)cc1 (stereo not given)	67 to 67.6 °C
Cc1cc2c(cc1C=O)C(C)(C)CCC2(C)C	82.4 to 84.1 °C
CSc1ncc(Cc2ccncc2)c(=O)[nH]1	179 to 182 °C
CCOC(=O)c1c(Cl)c2cccnc2n(C)c1=O	132 to 135 °C
CCOC(=O)CCc1[nH]c2cccc3c2c1CC1C3CC(NC(=O)N(CC)CC)CN1C (stereo not given)	160 to 161 °C
COC(=O)c1ccc(/C=C/c2ccc(SC)cc2)nc1	157 to 159 °C
CC(C)(C)OC(=O)Nc1ccc(C2=CCN(C(=O)OC(C)(C)C)CC2)cc1[N+](=O)[O-]	85 to 87 °C
O=C(Nc1ccccc1)NC1CCCCC1	164 °C
COc1cc(C#N)ccc1C=NO	170 to 171 °C
CC(C)(C)OC(=O)n1c([Si](C)(C)C)cc2cnccc21	112 °C
CCCNC(=O)C(C)NC(=O)C(NC(=O)OCc1ccccc1)C(Cc1ccccc1)C(=O)O (stereo not given)	169 to 171 °C
COc1cc(OC)nc(Oc2cccnc2C=O)n1	76 °C
CCOC(=O)C1=C(N)NC(C)=CC1c1ccccc1Cl (stereo not given)	171 °C
CCOC(=O)C(C#N)=CC=Cc1ccc(C(C)(C)C)cc1	65 to 70 °C
O=C(O)c1c(C(F)(F)F)nn(-c2c(Cl)cc(C(F)(F)F)cc2Cl)c1C(F)(F)F	185 to 190 °C
COc1ccc(S(=O)(=O)N(CCC(F)(F)C(F)F)c2ccccc2/C=C/c2ccncc2)cc1	124 to 126 °C
CCn1cnc2c(Nc3cccc(N)c3)nc(N[C@H]3CC[C@H](O)CC3)nc21	149 to 151 °C
COc1cc2c(=O)n(CCN3CCCCC3)c3c4cc5c(cc4nnc3c2cc1OC)OCO5	294 to 295 °C
CN(C)Cc1cccc(NCCCNc2nc(N)nn2C)c1	101 to 102 °C
CCOC(=O)c1cc(Cl)cnc1N	120 to 122 °C
c1csc(-c2cnc(COc3ccc(CCCn4ccnc4)cc3)s2)c1	82 to 84 °C
COC(=O)c1sccc1NC(=O)OC(C)C	105 to 107 °C
COC(=O)CCN=c1sc2ccccc2s1	58 to 60 °C

Compound	melting point
CCc1nc(/C=C/c2cn(-c3ccccc3)nc2OCc2ccc(OCc3nc(-c4ccc(CC(=O)O)cc4)oc3C)c(OC)c2)c(C)s1	198 to 199 °C
Cc1cccc(NC(=O)NCCC(=O)O)c1	166 °C
O=C(O)CCOc1cccc(F)c1	90 to 91 °C
COc1cccc(-c2nc(-c3ccccc3)c3ncc(-c4ccc(C(C)=O)cc4)cc3n2)c1	133 to 134 °C
CS(=O)(=O)OCCNc1ccc(Cl)cc1[N+](=O)[O-]	108 to 109 °C
Clc1ccccc1-c1n[nH]cc1Br	80 °C
C#CC1(c2ccc(OC)c(OC3CCCC3)c2)CC(=O)C1	58 to 59 °C
c1c(N2CCC3(CC2)OCCO3)nc(N2CCNCC2)nc1N1CCC2(CC1)OCCO2	122 to 126 °C
Cn1nc(C(F)(F)F)c(CS(=O)(=O)C2=NOC(C)(CCl)C2)c1Cl (stereo not given)	114 to 116 °C
CCOC(=O)NNc1nc2ccccc2n2cnc(C(=O)OCC)c12	126 to 128 °C
Nc1ncnc2c1c(C#CCO)nn2Cc1oc2ccccc2c(=O)c1-c1ccccc1	171 to 173 °C
CCNC(=O)Nc1nc2cc(-c3cccnc3)ccn2n1	230 to 233 °C
COC(=O)c1ccc(CC(C)NCC(O)c2ccc(O)c(CO)c2)cc1C(=O)OC (stereo not given)	124 to 129 °C
Cn1nnc2sc([N+](=O)[O-])cc2c1=O	164 to 168 °C
COc1ccc(NCCCOc2ccc3ccccc3c2)cc1	110 °C
CNC(=O)N(O)C(C)c1cc2cc(Cl)ccc2[nH]1 (stereo not given)	159 to 160 °C
Cn1ncnc1COc1nn2c(-c3cccs3)nncc2c1-c1ccccc1	209 °C
CC(=O)Nc1cc(C)c(O)cc1C	183 °C
Cc1nc(N)c2nc(C)n(CCOc3ccccc3)c2c1C	176 to 177 °C
Cc1[nH]c(-c2ccccc2)c(NC(C)C)c1C(=O)c1ccccc1	132 to 136 °C
CCOC(=O)c1nsc(=O)o1	49 °C
CCCCCCCCCCCCc1cc(C(=O)OCC)no1	34 to 36 °C
O=C1NC(=O)c2c(Sc3ccc([N+](=O)[O-])cc3)c(Sc3ccc([N+](=O)[O-])cc3)c(Sc3ccc([N+](=O)[O-])cc3)c(Sc3ccc([N+](=O)[O-])cc3)c21	297 to 301 °C
CC(=O)N(C)c1ccc2c(c1)C(c1ccccc1F)=NCc1cnc(C)n1-2	217 to 223 °C

Now from value to molecule:

melting point	Compound
215 to 220 °C	CC12CCC3c4ccc(O)cc4CC(Sc4ccc(C=CC(=O)O)cc4)C3C1CCC2O (stereo not given)
71 to 72 °C	CN1CCCC1=C(C#N)c1ccc(Cl)cc1
96.3 to 98.5 °C	O=C1CC[C@H](c2ccc(NC(=O)OCc3ccccc3)cc2)C1
211 to 214 °C	O=c1ccn2c(c1O)C(c1ccc(Cl)cc1)OCC2 (stereo not given)
102 to 103 °C	O=Cc1cc(-c2cccs2)ccc1O
152 to 154 °C	CC1(C)CNc2nc(-c3ccncc3)cc(=O)n2C1
207 to 209 °C	O=c1cc2c(nn1Cc1ccc(Cl)cc1)-c1ccccc1S(=O)CC2 (stereo not given)
152 to 153 °C	Cc1c(C)c(NC(=O)CC(C)(C)C)c2c(c1C)C(c1ccc(C(C)C)cc1)C(C)(C)O2 (stereo not given)
176 to 178 °C	O=c1n(CCCN2CCC(n3c(=O)[nH]c4ccccc43)CC2)nc2n1-c1ccccc1OC2
113 to 115 °C	Fc1ccc(C(CCCN2CCC(c3nn(-c4ccccc4)c4cc(F)ccc34)CC2)c2ccc(F)cc2)cc1
228 °C	Cc1c(C(=O)O)nc2c(=O)[nH]c3cc(S(C)(=O)=O)ccc3n12
114 to 120 °C	O=C1CC(c2ccccc2)C(=O)N1c1cc(Cc2n[nH]c(=O)c3ccccc23)ccc1F (stereo not given)
58.9 °C	[N-]=[N+]=N[C@@H]1CN2C(=O)N(c3cc(Cl)cc(Cl)c3)C(=O)[C@]2(Cc2ccc(Br)cc2)C1
224 to 226 °C	Cc1nn(-c2ccccn2)c2ncc(C(=O)c3ccccc3)c(O)c12
185 °C	O=C(O)CCCc1cc2nc(Cl)ccc2n1S(=O)(=O)c1ccc(C(F)(F)F)cc1
143 to 145 °C	CCOc1ccnc(C(C)NC(=O)Nc2ccc(Br)cn2)c1F (stereo not given)
104 to 105 °C	COc1ccc(-c2cnc3ccc(-c4nnc(SCc5cccc(C(F)(F)F)c5)o4)cn23)cc1
154 to 156 °C	CCC1(CCCCN2CCN(c3ccccn3)CC2)C(=O)Nc2ccc(Cl)cc21 (stereo not given)
217 to 218 °C	Cc1cc2c(-c3ccccc3C)c(C#N)n(C)c(=O)c2cc1C
95 to 104 °C	CN(C)Cc1ccccc1-c1ccc(C(=O)N2Cc3ccc(C(=O)NCc4cccnc4)n3Cc3ccccc32)cc1
235 °C	N#Cc1ccc2c(OCc3ccccc3)cc(C(=O)O)cc2c1
146 to 147 °C	OCc1cccc2nc(-c3ccncc3)oc12
123 to 126 °C	CCCCCS(=O)(=O)NC(=O)CCc1ccc(OCCN2CCCC2=O)cc1Oc1ncc(C(F)(F)F)cc1Cl
102 to 105 °C	O=C1CCC(c2c[nH]c3cc(F)ccc23)CC1
229 to 231 °C	CC(=O)c1c[nH]c(Cc2ccc(O)cc2)n1
270 °C	O=C(Nc1c(Cl)cncc1Cl)c1ccc(OC(F)F)c2oc3ccccc3c12

melting point	Compound
203 to 204 °C	CC(C)n1nc(-c2c(-c3ccccc3)nn3ccc(N4CCNCC4)cc23)ccc1=O
144 to 146 °C	O=C(NCC1CN(Cc2ccccc2)CCO1)c1cccc2c1OCO2 (stereo not given)
179 °C	Cc1c(NC(=O)c2ccc(OC[C@@H]3CCCO3)cc2)ccc2c1cc(CNCC(C)(C)C)n2C
232 to 234 °C	Cc1ccn2nc(S(=O)(=O)Nc3c(Cl)cccc3Cl)nc2c1
114 to 115 °C	Cc1oc(-c2ccccc2)nc1COc1ccc2c(c1)CCC(C=O)=C2
97 °C	COC(=O)CCCc1cc2nc(Cl)ccc2n1S(=O)(=O)c1cccc(C(F)(F)F)c1
205 to 206 °C	COc1ccc(Br)c(OC)c1-c1ccc(C[C@H](NC(=O)c2c(Cl)cccc2Cl)C(=O)O)cc1
172 to 173 °C	O=C1C(=O)N(C(c2ccccc2)c2ccccc2)c2c(Cl)cccc21
161 to 163 °C	COc1ccc(-c2[nH]nc3c2CCc2ccccc2-3)cc1
129 to 131 °C	COc1ccc(N2C(=O)C(=O)N(c3ccccc3)C2=O)cc1
131 to 132 °C	CCOC(=O)C1=CNC(COCCN)=C(C(=O)OC)C1c1cccc(Cl)c1Cl (stereo not given)
205 to 208 °C	Cn1c(=O)n(S(=O)(=O)c2ccc(Cl)cc2)c(=O)c2ccc(Cl)cc21
123 °C	COC(=O)c1ccc(Cc2cc3cc(C(F)(F)F)ccc3n2S(=O)(=O)c2ccc(C(C)C)cc2)cc1
226 to 228 °C	CC(C)n1nc(-c2sc(C(N)=O)nc2-c2ccc(F)cc2)ccc1=O
127 to 129 °C	O=C(O)C1CCc2c(Cc3ccc(Cl)cc3)cccc21 (stereo not given)
63 to 64 °C	CCC(=O)C1C(=O)CC(c2ccccc2Cl)CC1=O (stereo not given)
187 to 189 °C	Cc1nc(N2CCN(CC3CC3)C2=O)sc1C(=O)NCc1cccnn1
241 to 242 °C	CCCCC1N=C(Cl)/C(=C2\C(=O)Nc3ccccc32)N1Cc1ccc(C(=O)O)cc1 (stereo not given)
86 to 88 °C	COc1ccc2cc3c(Cl)nn(CCN(C)C)c3nc2c1
125 to 130 °C	CN1CC(=O)OC2(CCN(CC=CC(=O)Nc3cc4c(Nc5ccc(F)c(Cl)c5)ncnc4cc3OCC3CC3)CC2)C1
114 to 115 °C	CCOC(=O)c1ccc(C#CCOc2cc3c(cc2C=O)C(C)(C)CCC3(C)C)cc1
143 to 145 °C	CN1c2ccccc2N(C(=O)CNC(C)(C)C)c2ccccc2S1(=O)=O
48 °C	CC(C)(C)c1ccc(CN2CCN(c3ccccc3)CC2)o1
177 to 178 °C	CN(C)C1(c2ccccc2Cl)C(=O)N(Cc2ccc(C(=O)NC(C)(C)C)cc2)c2ccc(Cl)cc21 (stereo not given)
152 °C	CCOC(=O)C(=O)Nc1ccc(Br)c2cccnc12
